{
  "source": "paper PMC10287695",
  "about": "“Non-covalent inhibitors of thioredoxin glutathione reductase with schistosomicidal activity in vivo” (Nature Communications, 2023)",
  "key": {"TGR [1]": {"target": "T1, TGR (Schistosoma mansoni, UniProt Q962Y6, X597U)", "T1 construct": "made in house", "experiment": "NADPH consumption (oxidase activity)", "format": "biochemical, S. mansoni", "settings": "replicates", "method": "TRi-1, Stattic (both at 50 µM) and AF (20 µM) were incubated with 1 ml of 500 nM TGR and 100 µM NADPH in TGR reaction buffer for 30 min. The samples were desalted using a Zeba spin desalting column (Thermo Fisher Scientific) and 100 µl of the desalted sample was combined with 100 µl of 100 µM NADPH. NADPH consumption was monitored at 340 nm in triplicate. Compounds 1, 4, 6, and 7 (50 µM) were tested in the same fashion without the desalting step and with a first incubation step of 30 min for 6 and 7 and 2 h for 1 and 4."}, "TGR [2]": {"target": "T1, TGR", "experiment": "Superoxide production (pyrogallol red)", "format": "biochemical, S. mansoni", "settings": "replicates", "method": "The production of superoxide by TGR was determined by monitoring reaction of superoxide with pyrogallol red[80]. Briefly, a 1 ml reaction mix (500 nM TGR, 100 µM NADPH, and 20–50 µM inhibitor) was incubated at room temperature for 30 min for fast inhibitors, or 2 h for slow inhibitors. For irreversible inhibitor controls TRi-1 (synthesized in house as reported[45]), Stattic (Cayman Chemical), and AF (Cayman Chemical), the samples were desalted using a Zeba spin desalting column. 100 µL of sample was combined with pyrogallol buffer with and without superoxide dismutase (SOD) (50 µM pyrogallol red, 300 µM NADPH; ± 10 units SOD). The reaction was measured at A340 and A540 simultaneously for 2 h."}, "[3]": {"system": "S. mansoni adult worms in mice", "experiment": "Schistosomicidal efficacy in infected mice, adult worms (42 d.p.i.)", "format": "in vivo", "settings": "for Egg burden, Treated, individual mice / Worm burden, Treated, individual mice: Adult worm, listed as 8VP70; for Egg burden, Treated, individual mice: eggs per 50 mg liver (Fig. 6); for decrease in egg burden / decrease in worm burden: mice", "method": "(§1) To assess the efficacy of the compounds in vivo against juvenile and adult worms, five female Swiss-Webster mice were randomly assigned for the control and experiment groups using a randomization tool embedded in GraphPad Prism. Mice were percutaneously exposed for 1 h to about 80 S. mansoni cercariae. Three- and six-weeks post infection, respectively, for juvenile and adult worms, mice were treated depending on their weight with formulations of the compounds, while the control mice received only the vehicle. Compounds were formulated with 10% DMSO and 10% Tween-80, and vortexed to obtain a uniform mixture. The mixture was sonicated twice for 5 min each time using a digital ultrasonic cleaner heated to 50 °C. Sodium chloride 0.9% (80% normal saline) was added to the mixture, briefly vortexed and sonicated one more time using the same conditions as previous. The investigators were blinded by which group of mice received a treatment and the vehicle, as injection was done by technicians from the Comparative Research Center of Rush University Medical Center. Using a 26 G, 3/8 in intradermal bevel needle, each mouse was administered intraperitoneally with 100 µl of the formulated compound suspension at 50 mg/kg, 100 mg/kg and 200 mg/kg. Mice treated three weeks post infection for juvenile worms were euthanized three weeks post treatment and mice treated six weeks post infection were euthanized one week post treatment with 0.018 ml of Euthasol and 5.85 mg/ml heparin and perfused. The mesenteric and hepatic portal veins of the mice were carefully scanned under the microscope to extract any remaining S. mansoni adult worms and worm burdens were determined. Egg burden was determined by weighing 50 mg of liver tissue from each of treated and control mice. The liver tissues were digested with 5% KOH at 37 °C overnight and washed twice with PBS. The number of eggs per 50 mg of liver tissue was determined using a Keyence BZ-X800 microscope using the egg autofluorescence."}, "[4]": {"system": "S. mansoni juvenile worms in mice", "experiment": "Schistosomicidal efficacy in infected mice, juvenile worms (21 d.p.i.)", "format": "in vivo", "method": "as §1"}, "[5]": {"settings": "second of the two columns per substance (condition not given)"}, "[6]": {"settings": "1 x 100 mg/kg i.p. at 42 d.p.i."}, "[7]": {"settings": "2 x 100 mg/kg i.p. (1: bid at 42 d.p.i.; 6: at 42 and 45 d.p.i.)"}, "[8]": {"settings": "mice, 2 x 100 mg/kg at 21 d.p.i. (juvenile worms)"}},
  "note": "Values joined by “and” are separate entries in the source; they are usually repeats but may differ in a detail not shown here. Equal values may be shown once.",
  "data": [
    {"smiles": "CC(=O)OC[C@H]1O[C@@H]([S-])[C@H](OC(C)=O)[C@@H](OC(C)=O)[C@@H]1OC(C)=O.CCP(CC)CC.[Au+]", "note": "[AF, auranofin, reference compound]", "values": [
      {"measurement": "NADPH consumption (rate/ΔOD340)", "setting": "TGR [1]", "value": "-0.0002869 and -0.0002715 and -0.0002247"},
      {"measurement": "Superoxide production, Pyrogallol red consumption monitored ΔA540", "setting": "TGR [2]; condition not given", "value": "-0.0001303 and -1.372e-5"},
      {"measurement": "Superoxide production, Pyrogallol red consumption monitored ΔA540", "setting": "TGR [2]; [5]", "value": "-0.0001254 and 0.0001668"}
    ]},
    {"smiles": "Cc1oc(-c2ccc3c(c2)OCO3)nc1CN[C@@H]1C[C@@H]2C[C@H]([C@H]1C)C2(C)C", "note": "[Compound 1]", "values": [
      {"measurement": "NADPH consumption (rate/ΔOD340)", "setting": "TGR [1]", "value": "-0.000815 and -0.0007737 and -0.0007308"},
      {"measurement": "Egg burden, Treated, individual mice", "setting": "[3]; 1 x 100 mg/kg", "value": "1302 and 1436 and 1582 and 1478 and 1434"},
      {"measurement": "Worm burden, Treated, individual mice", "setting": "[3]; 1 x 100 mg/kg", "value": "15 and 16 and 12"},
      {"measurement": "Egg burden, Treated, individual mice", "setting": "[3]; 2 x 100 mg/kg", "value": "1572 and 1426 and 1565 and 1335 and 1329"},
      {"measurement": "Worm burden, Treated, individual mice", "setting": "[3]; 2 x 100 mg/kg", "value": "12 and 10 and 9 and 8"},
      {"measurement": "decrease in egg burden", "setting": "[3]; [6]", "value": "40% and 40.5%"},
      {"measurement": "decrease in worm burden", "setting": "[3]; [6]", "value": "44% and 43.5%"},
      {"measurement": "decrease in egg burden", "setting": "[3]; [7]", "value": "48% and 47.5%"},
      {"measurement": "decrease in worm burden", "setting": "[3]; [7]", "value": "54% and 53.6%"},
      {"measurement": "Superoxide production, Pyrogallol red consumption monitored ΔA540", "setting": "TGR [2]; condition not given", "value": "-0.0003735 and -0.0003395 and -0.0002315"},
      {"measurement": "Superoxide production, Pyrogallol red consumption monitored ΔA540", "setting": "TGR [2]; [5]", "value": "-9.411e-5 and -9.234e-5 and -8.721e-5"},
      {"measurement": "Egg burden, Treated, individual mice", "setting": "[4]; 2 x 100 mg/kg, Juvenile worm, eggs per 50 mg liver (Fig. 6), listed as 8VP70", "value": "1567 and 1683 and 1698 and 1583 and 1670"},
      {"measurement": "Worm burden, Treated, individual mice", "setting": "[4]; 2 x 100 mg/kg, Juvenile worm, listed as 8VP70", "value": "21 and 22 and 19 and 20"},
      {"measurement": "decrease in egg burden", "setting": "[4]; [8]", "value": 31, "unit": "%"},
      {"measurement": "decrease in worm burden", "setting": "[4]; [8]", "value": "28.2% and 28%"}
    ]}
  ]
}
